Assay results as given in the supplement of paper PMC13380429.

Experiments:
Details in all cases: 72 h
[1] = tested on: Caco-2; test: cell viability relative to DMSO; higher = less toxic
[2] = tested on: Calu-3; test: as above
[3] = tested on: HepG2; test: as above
[4] = tested on: U2OS; test: as above
[5] = tested on: Vero E6; test: as above
[6] = tested on: Caco-2; test: relative viability EC50 (midpoint between 100% and the lowest measured viability); higher = less toxic
[7] = tested on: Calu-3; test: as above
[8] = tested on: HepG2; test: as above
[9] = tested on: U2OS; test: as above
[10] = tested on: Vero E6; test: as above
[11] = tested on: Caco-2; test: drug sensitivity score (DSS) for viability; higher = more toxic; extreme values may be limits of the assay
[12] = tested on: Calu-3; test: as above
[13] = tested on: HepG2; test: as above
[14] = tested on: U2OS; test: as above
[15] = tested on: Vero E6; test: as above

| SMILES | cell viability ([1]; 1 nM) [%] | cell viability ([1]; 10 nM) [%] | cell viability ([1]; 100 nM) [%] | cell viability ([1]; 1000 nM) [%] | cell viability ([1]; 10000 nM) [%] | cell viability ([2]; 1 nM) [%] | cell viability ([2]; 10 nM) [%] | cell viability ([2]; 100 nM) [%] | cell viability ([2]; 1000 nM) [%] | cell viability ([2]; 10000 nM) [%] | cell viability ([3]; 1 nM) [%] | cell viability ([3]; 10 nM) [%] | cell viability ([3]; 100 nM) [%] | cell viability ([3]; 1000 nM) [%] | cell viability ([3]; 10000 nM) [%] | cell viability ([4]; 1 nM) [%] | cell viability ([4]; 10 nM) [%] | cell viability ([4]; 100 nM) [%] | cell viability ([4]; 1000 nM) [%] | cell viability ([4]; 10000 nM) [%] | cell viability ([5]; 1 nM) [%] | cell viability ([5]; 10 nM) [%] | cell viability ([5]; 100 nM) [%] | cell viability ([5]; 1000 nM) [%] | cell viability ([5]; 10000 nM) [%] | relative viability EC50 [6] [µM] | relative viability EC50 [7] [µM] | relative viability EC50 [8] [µM] | relative viability EC50 [9] [µM] | relative viability EC50 [10] [µM] | drug sensitivity score [11] | drug sensitivity score [12] | drug sensitivity score [13] | drug sensitivity score [14] | drug sensitivity score [15] |
| --- | --- | --- | --- | --- | --- | --- | --- | --- | --- | --- | --- | --- | --- | --- | --- | --- | --- | --- | --- | --- | --- | --- | --- | --- | --- | --- | --- | --- | --- | --- | --- | --- | --- | --- | --- |
| O=C(O)/C=C/c1ccc(Cn2ccnc2)cc1 [ozagrel] | 92.4 | 101 | 96.7 | 98.6 | 94.9 | 98 | 100 | 99.7 | 106 | 92.3 | 95 | 91.9 | 101 | 95.7 | 100 | 97.8 | 100 | 95.1 | 99.7 | 93.2 | 97.5 | 103 | 95.2 | 101 | 101 | > 10 | > 10 | > 10 | > 10 | > 10 | 0 | 0 | 0 | 0 | 0 |
| Cc1ccc(-c2n[nH]c3c2C(c2cccc(O)c2)N(c2ccc(C(=O)O)cc2)C3=O)cc1 (stereo not given) | 93.4 | 99.2 | 87 | 100 | 100 | 92 | 105 | 98.6 | 99.9 | 88.2 | 111 | 101 | 114 | 93.4 | 103 | 90.5 | 96.2 | 99.1 | 99.7 | 98.1 | 102 | 104 | 101 | 95.8 | 101 | > 10 | > 10 | > 10 | > 10 | > 10 | 0 | 0 | 0 | 0 | 0 |
| CN[C@@H]1[C@@H](O)[C@@H](O[C@@H]2[C@@H](O)[C@H](O[C@H]3O[C@H](CN)[C@@H](O)[C@H](O)[C@H]3O)[C@@H](N)C[C@H]2NC(=O)[C@@H](O)CN)OC[C@]1(C)O [isepamicin] | 89.7 | 97 | 89.1 | 98 | 91.8 | 96.4 | 90.7 | 91.5 | 92.6 | 99.3 | 98.8 | 95.8 | 96.6 | 107 | 103 | 97.6 | 100 | 94.6 | 99.1 | 102 | 91.5 | 98.3 | 96.6 | 95.5 | 101 | > 10 | > 10 | > 10 | > 10 | > 10 | 0 | 0 | 0 | 0 | 0 |
| Cc1c(O)c(=O)ccn1C [deferiprone] | 92.4 | 98.3 | 93.4 | 116 | 93.4 | 89.6 | 106 | 109 | 100 | 98.2 | 103 | 97.4 | 98.3 | 97.1 | 101 | 96.5 | 100 | 100 | 94.5 | 96.2 | 101 | 102 | 99.3 | 98.1 | 99.9 | > 10 | > 10 | > 10 | > 10 | > 10 | 0 | 0 | 0 | 0 | 0 |
| CCN1C[C@]2(COC(=O)c3ccccc3N3C(=O)C[C@H](C)C3=O)CC[C@H](OC)[C@@]34[C@@H]5C[C@H]6[C@H](OC)[C@@H]5[C@](O)(C[C@@H]6OC)[C@](O)([C@@H](OC)[C@H]23)[C@@H]14 [methyllycaconitine] | 108 | 96.1 | 103 | 97 | 98.1 | 97.3 | 102 | 90.3 | 91.1 | 98.6 | 96.3 | 102 | 99.4 | 95.2 | 101 | 97.1 | 94.5 | 95.8 | 96.3 | 94.7 | 104 | 102 | 101 | 102 | 97.8 | > 10 | > 10 | > 10 | > 10 | > 10 | 0 | 0 | 0 | 0 | 0 |
| Cc1[nH]c(/C=C2\C(=O)Nc3cc(-c4ccccc4)ccc32)c(C)c1CCC(=O)O [SU16f] | 98.7 | 100 | 97.5 | 91.9 | 83.3 | 99.8 | 108 | 107 | 103 | 104 | 92.3 | 95.1 | 87.6 | 97.9 | 76.8 | 104 | 97 | 102 | 95.5 | 89.1 | 92.9 | 93.3 | 93.8 | 92.8 | 87 | > 10 | > 10 | > 10 | > 10 | > 10 | 0.7 | 0 | 1 | 0.1 | 0 |
| Clc1ccc(C(c2ccc(Cl)cc2)C(Cl)(Cl)Cl)cc1 [4,4'-DDT] | 99.1 | 102 | 105 | 95.2 | 97.8 | 99.1 | 110 | 93 | 105 | 95.6 | 98.5 | 104 | 97.5 | 95.8 | 98.2 | 103 | 101 | 100 | 97.3 | 106 | 103 | 105 | 105 | 102 | 99.9 | > 10 | > 10 | > 10 | > 10 | > 10 | 0 | 0 | 0 | 0 | 0 |
| COc1ccc(CCN2CCN(CCCc3ccccc3)CC2)cc1OC [cutamesine] | 97.9 | 95.6 | 96 | 92.9 | 98 | 95.9 | 110 | 102 | 119 | 96.8 | 91.5 | 97.2 | 88.9 | 98.4 | 85 | 106 | 100 | 104 | 93.5 | 96.8 | 102 | 92.5 | 102 | 96.2 | 95.6 | > 10 | > 10 | > 10 | > 10 | > 10 | 0 | 0 | 0 | 0 | 0 |
| C[C@@H]1CN(c2c(F)c(F)c3c(=O)c(C(=O)O)cn(C4CC4)c3c2F)C[C@H](C)N1 [orbifloxacin] | 110 | 105 | 109 | 103 | 94.6 | 113 | 97.9 | 112 | 92.8 | 107 | 98.2 | 110 | 94.8 | 100 | 92.1 | 99.5 | 97.5 | 95.3 | 97.6 | 101 | 105 | 110 | 101 | 100 | 94.5 | > 10 | > 10 | > 10 | > 10 | > 10 | 0 | 0 | 0 | 0 | 0 |
| C/C(=N\c1ccccc1N)c1c(C)cc(=O)n(O)c1O [SUN-B-8155] | 102 | 105 | 99.4 | 103 | 96.2 | 110 | 115 | 91.8 | 104 | 110 | 101 | 104 | 102 | 99.7 | 77.3 | 97.3 | 104 | 98.9 | 99.7 | 96.3 | 101 | 104 | 101 | 98.6 | 104 | > 10 | > 10 | > 10 | > 10 | > 10 | 0 | 0 | 0.8 | 0 | 0 |
| CC[C@@H](CO)NC(=O)[C@@H]1C=C2c3cccc4[nH]cc(c34)C[C@H]2N(C)C1 [methylergometrine] | 97.6 | 98 | 96.2 | 96.7 | 99.5 | 96.9 | 98.3 | 99.4 | 86.2 | 91.2 | 98.6 | 102 | 97.5 | 110 | 93.6 | 96.2 | 99.1 | 102 | 98.5 | 104 | 106 | 101 | 100 | 102 | 99.8 | > 10 | > 10 | > 10 | > 10 | > 10 | 0 | 1.1 | 0 | 0 | 0 |
| Cc1nc2c(O)cccc2c(=O)[nH]1 [NU-1025] | 101 | 92.4 | 96.6 | 96.7 | 101 | 96.6 | 99.6 | 102 | 106 | 99.8 | 104 | 109 | 98.4 | 109 | 101 | 104 | 100 | 100 | 99.9 | 101 | 99.7 | 102 | 98.7 | 100 | 98.1 | > 10 | > 10 | > 10 | > 10 | > 10 | 0 | 0 | 0 | 0 | 0 |
| O=C(O)C[C@H]1CC[C@H](c2ccc(-c3ccc(Nc4ccc(C(F)(F)F)nc4)cn3)cc2)CC1 [LCQ908] | 104 | 102 | 98.3 | 100 | 92.4 | 92.1 | 103 | 95 | 95.7 | 95.5 | 99.4 | 102 | 108 | 93.5 | 99.8 | 95.7 | 102 | 97 | 102 | 90.5 | 105 | 104 | 103 | 100 | 104 | > 10 | > 10 | > 10 | > 10 | > 10 | 0 | 0 | 0 | 0 | 0 |
| CCOC(=O)Nc1ccc(NCc2ccc(F)cc2)nc1N [flupirtine] | 106 | 102 | 99.6 | 87.7 | 96 | 105 | 113 | 98.6 | 88.2 | 91.3 | 89.2 | 101 | 103 | 98.4 | 99.8 | 100 | 99.1 | 101 | 101 | 99.5 | 104 | 111 | 98.2 | 98.6 | 97 | > 10 | > 10 | > 10 | > 10 | > 10 | 0.6 | 0.5 | 0 | 0 | 0 |
